Assay results: PubChem BioAssay (NCI)
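The compound was tested at five concentrations on cells cultured in 96-well plates, with a 48-hour exposure period. The concentration for full growth arrest is given as TGI.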

Experiments:
Assay in all cases: NCI tumour cell line growth inhibition, 48 h
SF-539 CNS = tested on: SF-539 CNS
ACHN renal = tested on: ACHN renal
SK-MEL-5 melanoma = tested on: SK-MEL-5 melanoma
SK-MEL-2 melanoma = tested on: SK-MEL-2 melanoma
COLO 205 colon = tested on: COLO 205 colon
NCI-H226 lung = tested on: NCI-H226 lung
SNB-75 CNS = tested on: SNB-75 CNS
RXF 393 renal = tested on: RXF 393 renal
HCT-15 colon = tested on: HCT-15 colon
MDA-N = tested on: MDA-N
LOX IMVI melanoma = tested on: LOX IMVI melanoma

| SMILES | TGI (SF-539 CNS) [µM] | TGI (ACHN renal) [µM] | TGI (SK-MEL-5 melanoma) [µM] | TGI (SK-MEL-2 melanoma) [µM] | TGI (COLO 205 colon) [µM] | TGI (NCI-H226 lung) [µM] | TGI (SNB-75 CNS) [µM] | TGI (RXF 393 renal) [µM] | TGI (HCT-15 colon) [µM] | TGI (MDA-N) [µM] | TGI (LOX IMVI melanoma) [µM] |
| --- | --- | --- | --- | --- | --- | --- | --- | --- | --- | --- | --- |
| [O-]c1c2c(nn1-c1ccc(F)cc1)c1ccccc1c[n+]2Cc1ccccc1 | 8.57 | 28 | 13.4 | 9.23 | 4.52 | 47.4 | 60.5 | 33.7 | 39.1 |  |  |
| CN(C)CCC(=O)[C@@]1(O)CC[C@H]2[C@@H]3CC=C4C[C@@H](O)CC[C@]4(C)[C@H]3CC[C@@]21C | 8.61 | 29.5 | > 81.8 | 37.1 | 32.9 | > 100 | 29.5 | 23.1 | 45.1 | 34.5 | 28.7 |
| O=C(c1ccccc1)c1ccc(N2C(=O)/C(=C/c3cccc(Oc4ccccc4)c3)N=C2c2ccccc2)c(N2C(=O)/C(=C/c3cccc(Oc4ccccc4)c3)N=C2c2ccccc2)c1 |  | > 100 | 30.7 | 71.2 | 37.1 |  | > 100 | > 100 | > 100 | 69 | > 100 |
| NC1=NC(c2ccc(Cl)cc2)=CC(c2cccc(Cl)c2)S1 (stereo not given) | > 100 | 59.9 | 80.7 | 55.5 | 33.1 | 71.9 |  | 77.1 | 33.2 | 52.9 | 99.1 |
| CCCCC(CC)C(=O)Oc1ccc(C(=O)c2ccccc2)c(O)c1 (stereo not given) | > 100 | > 100 | > 100 | > 100 | > 100 |  | 74.3 | > 100 | > 100 | > 100 | > 100 |
| CCOC(=O)N1c2ccccc2N(C(=O)OCC)C1CC(=O)/C=C/c1ccccc1 |  | 15.7 | 8.92 | 7.38 | 4.17 | 6.04 | 9.92 | 13.8 | 12.9 | 15.8 | 7.06 |
| CC(C)=CCC/C(C)=C/Cc1c2c(c3oc(-c4ccc(O)c(O)c4)c(O)c(=O)c3c1O)C=CC(C)(C)O2 | 7 | 7.83 | 9.86 | 13.7 | 5.33 | 15.2 | 11.6 | 18.6 | 8.39 | 11.4 |  |
| O=C1c2cc3c(cc2[C@@H]2C(O)[C@H]4O[C@H]4C4CCN1C42)OCO3 (stereo not given in full) | > 37.5 | > 37.5 |  | > 37.5 | > 37.5 | > 37.5 |  |  | > 37.5 |  | > 37.5 |
| Cc1csc2nc(-c3cc([N+](=O)[O-])c(Cl)cc3Cl)c(/C=N/N=C(N)N)n12 | 35.1 | 30.9 | 30.9 | 26.1 | 36.8 | 34.6 |  | 35 | 45.2 |  | 33.1 |
| CC(C)N(CC(=O)O)CC(=O)O | > 100 | > 100 | > 100 | > 100 | > 100 | > 100 | > 100 | > 100 | > 100 | > 100 | > 100 |
| CO[P@@]1(=O)O[C@@H](c2ccccc2)[C@H](O)[C@@]1(O)c1ccccc1 | > 100 | > 100 | > 100 | > 100 | > 100 | > 100 | > 100 | > 100 | > 100 | > 100 | > 100 |
| Nc1[nH]c(=O)nc2c1cnn2COCCO | > 100 | > 100 | > 100 | > 100 | > 100 | 6.36 | > 100 | 93.7 | > 100 |  | > 100 |
| O=P1(Oc2ccc(Cl)cc2Cl)Oc2cc3ccccc3cc2O1 | > 100 |  | > 100 | > 100 | > 100 | > 100 | > 100 | > 100 | > 100 |  | > 100 |
| CCOC(=O)c1sc2nc(SC)nc3c2c1NC(=O)CN3c1ccc(F)cc1 | 33.3 | 93.4 | > 100 | > 100 | > 100 | 91.5 |  | 41.8 |  | > 100 | > 100 |
| CC1(C=O)CC(CCc2ccccc2)NC1Cc1ccc(O)cc1 (stereo not given) | 29.4 | 28.6 | 29.4 | 29 | 23.3 | 31.5 | 28.6 | 31 | 43.3 | 32.1 | 35 |
| COc1cc2cc(C(=O)N3CC(CCl)c4ccc(NO)cc43)[nH]c2c(OC)c1OC (stereo not given) | 1.99 | 0.723 | 0.342 | 0.325 | 2.04 |  | 0.47 | 0.343 | > 100 | 0.727 | 2.56 |
| CCOC(=O)C(C(=O)OCC)c1cc(-c2cc3ccccc3o2)oc(=O)c1C#N | 36.8 | > 100 | > 100 | 38.2 | 48.7 | 41.9 | 90.6 | 43.5 | 35.7 |  | 31.8 |
| Nc1ccc(Oc2ccc(C34CC5C6CC7(c8ccc(Oc9ccc(N)cc9)cc8)CC5C(C3)C(C7)C6C4)cc2)cc1 |  | > 100 | > 100 | > 100 | > 100 | > 100 |  | > 100 | > 100 | > 100 | > 100 |
